From patent publication US11446351B2, “Composition for treating one or more estrogen related diseases” (LIFEARC, priority 2018, dated 2022)
Counter-ions that a name gives are not always drawn. Where a SMILES comes first, the peptide text is derived from it. [ ]: non-standard residue; d: D form. dPhe(4-Cl) = N[C@H](Cc1ccc(Cl)cc1)C(=O)O; d2Nal = N[C@H](Cc1ccc2ccccc2c1)C(=O)O; d(hCit) = NC(=O)NCCCC[C@@H](N)C(=O)O; Lys(iPr) = CC(C)NCCCC[C@H](N)C(=O)O; d3Pal = N[C@H](Cc1cccnc1)C(=O)O

What was measured:
[1] = Phase I trial (Example 1): pharmacokinetics, total systemic exposure of Teverelix; type: in vivo, human
Description: The Teverelix TFA formulations were manufactured as followed. 0.8 ml or 0.6 ml 5% mannitol were added to the relevant dosage of 60 or 45 mg of the LHRH antagonist Teverelix® trifluoroacetate, respectively. The mixture was stirred using vortex during one minute providing two dosage formulations of Teverelix TFA in a flowing milky pearly microcrystalline aqueous suspensions. The suspensions are made of microcrystals of about 10 μm length. Corresponding placebo formulations, without Teverelix TFA was also prepared
A phase I clinical trial with formulation A and B (and placebo) was conducted in order to evaluate the pharmacokinetics, pharmacodynamics, safety and tolerability of Teverelix TFA.
The formulations were each injected subcutaneous (s.c.) as follows: • A single dosage of formulation A (60 mg Teverelix TFA) administered s.c. on day 3±1 of the menstrual cycle, to 8 healthy female subjects • A single dosage of formulation A placebo was administered s.c. to on day 3±1 of the menstrual cycle, to 4 healthy female subjects • Two dosages of formulation B (45 mg Teverelix TFA) administered s.c. to 8 healthy female subjects. The first dosage on day 3±1 of the menstrual cycle and a second dosage administered on day 10±1 of the menstrual cycle, and • two dosages of formulation B placebo was administered s.c. to 4 healthy female subjects. The first dosage on day 3±1 of the […] menstrual cycle and a second dosage administered on day 10±1 of the menstrual cycle.

women = experiment: Phase I study (Example 2): estradiol concentrations in serum; type: in vivo, human
Description: Two formulations comprising either 45 mg or 30 mg Teverelix TFA and a placebo formulations, were prepared as described in example 1, i.e. the following formulations were prepared
The respective formulations were each injected subcutaneous (s.c.) to 24 subjects—12 per group i.e. 8 on active drug 4 on placebo per group. All subjects received a dose on either the active or placebo s.c. on day 3±1 of the menstrual cycle, i.e. • A single dosage of formulation B (45 mg Teverelix TFA) administered s.c. on day 3±1 of the menstrual cycle, • A single dosages of formulation C (30 mg Teverelix TFA) administered s.c. on day 3±1 of the menstrual cycle, and • A single dosage of formulation B placebo or formulation C placebo administered s.c. on day 3±1 of the menstrual cycle.
The concentration of Teverelix TFA, and Estradiol was measured over a period of 63 days. Additionally, the effect on Teverelix TFA on two bone markers was measured.
The mean estradiol concentration in the respective subjects was measured as described in example 1.

[2] = 60 mg single s.c. (Treatment Group 1)
[3] = 2 × 45 mg s.c. (Treatment Group 2)

AUC(0−cq), Geometric Mean [1, 2]: 1.592 µM·h
AUC(0−t), Geometric Mean [1, 2]: 1.907 µM·h
CmaxInit1, Geometric Mean [1, 2]: 10.9 nM
CmaxLate, Geometric Mean [1, 2]: 2.63 nM
AUC(0−cq), Geometric Mean [1, 3]: 2.323 µM·h
AUC(0−t), Geometric Mean [1, 3]: 2.833 µM·h
CmaxInit1, Geometric Mean [1, 3]: 6.03 nM
CmaxInit2, Geometric Mean [1, 3]: 7.03 nM
CmaxLate, Geometric Mean [1, 3]: 3.63 nM
total systemic exposure, two injections of 45 mg one week apart compared with a single 60 mg injection ([1]; s.c., healthy female subjects): approximately 1.5 fold
Compound: CC(=O)N[C@H](Cc1ccc2ccccc2c1)C(=O)N[C@H](Cc1ccc(Cl)cc1)C(=O)N[C@H](Cc1cccnc1)C(=O)N[C@@H](CO)C(=O)N[C@@H](Cc1ccc(O)cc1)C(=O)N[C@H](CCCCNC(N)=O)C(=O)N[C@@H](CC(C)C)C(=O)N[C@@H](CCCCNC(C)C)C(=O)N1CCC[C@H]1C(=O)N[C@H](C)C(N)=O [Teverelix TFA, N-Ac-d-Nal^1,d-pCl-Phe^2,d-Pal^3,d-(Hci)^6,Lys(iPr)^8,d-Ala^10 trifluoroacetate] (Ac-[d2Nal][dPhe(4-Cl)][d3Pal]SY[d(hCit)]L[Lys(iPr)]P[dA]-NH2; C-terminus assumed)
Mean Estradiol concentration in serum (women; 30 mg dosage, day 0 (baseline)): 27.7 ng/L
Mean Estradiol concentration in serum (women; 30 mg dosage, day 0.25): 16.1 ng/L
Mean Estradiol concentration in serum (women; 30 mg dosage, day 0.5): 13.8 ng/L
Mean Estradiol concentration in serum (women; 30 mg dosage, day 1): 12.3 ng/L
Mean Estradiol concentration in serum (women; 30 mg dosage, day 2 (nadir)): 11.2 ng/L
Mean Estradiol concentration in serum (women; 30 mg dosage, day 3): 13.7 ng/L
Mean Estradiol concentration in serum (women; 30 mg dosage, day 4): 19.4 ng/L
Mean Estradiol concentration in serum (women; 30 mg dosage, day 5): 22.6 ng/L
Mean Estradiol concentration in serum (women; 30 mg dosage, day 6): 24.4 ng/L
Mean Estradiol concentration in serum (women; 30 mg dosage, day 7): 31.0 ng/L
Mean Estradiol concentration in serum (women; 30 mg dosage, day 9): 50.2 ng/L
Mean Estradiol concentration in serum (women; 30 mg dosage, day 11): 46.5 ng/L
Mean Estradiol concentration in serum (women; 30 mg dosage, day 13): 59.9 ng/L
Mean Estradiol concentration in serum (women; 30 mg dosage, day 15): 36.3 ng/L
Mean Estradiol concentration in serum (women; 30 mg dosage, day 17): 38.7 ng/L
Mean Estradiol concentration in serum (women; 30 mg dosage, day 19): 51.4 ng/L
Mean Estradiol concentration in serum (women; 30 mg dosage, day 21): 64.5 ng/L
Mean Estradiol concentration in serum (women; 30 mg dosage, day 28): 67.4 ng/L
Mean Estradiol concentration in serum (women; 30 mg dosage, day 35): 60.7 ng/L
Mean Estradiol concentration in serum (women; 30 mg dosage, day 42): 58.6 ng/L
Mean Estradiol concentration in serum (women; 30 mg dosage, day 49): 60.5. ng/L
Mean Estradiol concentration in serum (women; 30 mg dosage, day 56): 105.1 ng/L
Mean Estradiol concentration in serum (women; 30 mg dosage, day 63): 90.7 ng/L
mean estradiol level over the prolonged period (women; 30 mg dose): 40.5 pg/mL
day on which estradiol levels returned to baseline (women; 30 mg group): ≤ 8 days
women who ovulated during the study period (based on peak estradiol levels) (women; 30 mg group): one of the 8
Mean Estradiol concentration in serum (women; 45 mg dosage, day 0 (baseline)): 21.5 ng/L
Mean Estradiol concentration in serum (women; 45 mg dosage, day 0.25): 16.3 ng/L
Mean Estradiol concentration in serum (women; 45 mg dosage, day 0.5): 11.5 ng/L
Mean Estradiol concentration in serum (women; 45 mg dosage, day 1): 8.4 ng/L
Mean Estradiol concentration in serum (women; 45 mg dosage, day 2 (nadir)): 7.5 ng/L
Mean Estradiol concentration in serum (women; 45 mg dosage, day 3): 11.4 ng/L
Mean Estradiol concentration in serum (women; 45 mg dosage, day 4): 12.3 ng/L
Mean Estradiol concentration in serum (women; 45 mg dosage, day 5): 13.3 ng/L
Mean Estradiol concentration in serum (women; 45 mg dosage, day 6): 17.5 ng/L
Mean Estradiol concentration in serum (women; 45 mg dosage, day 7): 17.8 ng/L
Mean Estradiol concentration in serum (women; 45 mg dosage, day 9): 22.6 ng/L
Mean Estradiol concentration in serum (women; 45 mg dosage, day 11): 36.4 ng/L
Mean Estradiol concentration in serum (women; 45 mg dosage, day 13): 54.9 ng/L
Mean Estradiol concentration in serum (women; 45 mg dosage, day 15): 91.6 ng/L
Mean Estradiol concentration in serum (women; 45 mg dosage, day 17): 105.9 ng/L
Mean Estradiol concentration in serum (women; 45 mg dosage, day 19): 115.1 ng/L
Mean Estradiol concentration in serum (women; 45 mg dosage, day 21): 126.1 ng/L
Mean Estradiol concentration in serum (women; 45 mg dosage, day 28): 80.9 ng/L
Mean Estradiol concentration in serum (women; 45 mg dosage, day 35): 41.6 ng/L
Mean Estradiol concentration in serum (women; 45 mg dosage, day 42): 67.4 ng/L
Mean Estradiol concentration in serum (women; 45 mg dosage, day 49): 92.4 ng/L
Mean Estradiol concentration in serum (women; 45 mg dosage, day 56): 104.9 ng/L
Mean Estradiol concentration in serum (women; 45 mg dosage, day 63): 47.1 ng/L
mean estradiol level over the prolonged period (women; 45 mg dose): 49.0 pg/mL
day on which estradiol levels returned to baseline (women; 45 mg group): ≤ 9 days
women who ovulated during the study period (based on peak estradiol levels) (women; 45 mg group): 5 of the 8
Mean Estradiol concentration in serum (women; 30 + 45 mg groups, day 0 (baseline)): 24.6 ng/L
Mean Estradiol concentration in serum (women; 30 + 45 mg groups, day 0.25): 16.2 ng/L
Mean Estradiol concentration in serum (women; 30 + 45 mg groups, day 0.5): 12.7 ng/L
Mean Estradiol concentration in serum (women; 30 + 45 mg groups, day 1): 10.4 ng/L
Mean Estradiol concentration in serum (women; 30 + 45 mg groups, day 2): 9.4 ng/L
Mean Estradiol concentration in serum (women; 30 + 45 mg groups, day 3): 12.6 ng/L
Mean Estradiol concentration in serum (women; 30 + 45 mg groups, day 4): 15.8 ng/L
Mean Estradiol concentration in serum (women; 30 + 45 mg groups, day 5): 17.9 ng/L
Mean Estradiol concentration in serum (women; 30 + 45 mg groups, day 6): 20.9 ng/L
Mean Estradiol concentration in serum (women; 30 + 45 mg groups, day 7): 24.4 ng/L
Mean Estradiol concentration in serum (women; 30 + 45 mg groups, day 9): 36.4 ng/L
Mean Estradiol concentration in serum (women; 30 + 45 mg groups, day 11): 41.8 ng/L
Mean Estradiol concentration in serum (women; 30 + 45 mg groups, day 13): 57.2 ng/L
Mean Estradiol concentration in serum (women; 30 + 45 mg groups, day 15): 64.0 ng/L
Mean Estradiol concentration in serum (women; 30 + 45 mg groups, day 17): 72.3 ng/L
Mean Estradiol concentration in serum (women; 30 + 45 mg groups, day 19): 83.3 ng/L
Mean Estradiol concentration in serum (women; 30 + 45 mg groups, day 21): 95.3 ng/L
Mean Estradiol concentration in serum (women; 30 + 45 mg groups, day 28): 74.1 ng/L
Mean Estradiol concentration in serum (women; 30 + 45 mg groups, day 35): 51.1 ng/L
Mean Estradiol concentration in serum (women; 30 + 45 mg groups, day 42): 63.0 ng/L
Mean Estradiol concentration in serum (women; 30 + 45 mg groups, day 49): 76.4 ng/L
Mean Estradiol concentration in serum (women; 30 + 45 mg groups, day 56): 105.0 ng/L
Mean Estradiol concentration in serum (women; 30 + 45 mg groups, day 63): 68.9 ng/L
